Test results: paper PMC10924921, “Mi-2β promotes immune evasion in melanoma by activating EZH2 methylation” (Nature Communications, 2024)

Experiments:
Test in all cases: biochemical
Set-up in all cases: KINOMEscan active-site competition binding panel (468 kinase assays), per cent of control at 1000 nM
Conditions in all cases: KINOMEscan per cent of control (binding competition); read-out: Percent Control
RIPK4 = RIPK4 (Homo sapiens, UniProt P57078)
From the text: (§1) Figure S7 / Percent Control

LIMK1 = LIMK1 (Homo sapiens, UniProt P53667)
Chain of LIMK1 (P53667 whole entry): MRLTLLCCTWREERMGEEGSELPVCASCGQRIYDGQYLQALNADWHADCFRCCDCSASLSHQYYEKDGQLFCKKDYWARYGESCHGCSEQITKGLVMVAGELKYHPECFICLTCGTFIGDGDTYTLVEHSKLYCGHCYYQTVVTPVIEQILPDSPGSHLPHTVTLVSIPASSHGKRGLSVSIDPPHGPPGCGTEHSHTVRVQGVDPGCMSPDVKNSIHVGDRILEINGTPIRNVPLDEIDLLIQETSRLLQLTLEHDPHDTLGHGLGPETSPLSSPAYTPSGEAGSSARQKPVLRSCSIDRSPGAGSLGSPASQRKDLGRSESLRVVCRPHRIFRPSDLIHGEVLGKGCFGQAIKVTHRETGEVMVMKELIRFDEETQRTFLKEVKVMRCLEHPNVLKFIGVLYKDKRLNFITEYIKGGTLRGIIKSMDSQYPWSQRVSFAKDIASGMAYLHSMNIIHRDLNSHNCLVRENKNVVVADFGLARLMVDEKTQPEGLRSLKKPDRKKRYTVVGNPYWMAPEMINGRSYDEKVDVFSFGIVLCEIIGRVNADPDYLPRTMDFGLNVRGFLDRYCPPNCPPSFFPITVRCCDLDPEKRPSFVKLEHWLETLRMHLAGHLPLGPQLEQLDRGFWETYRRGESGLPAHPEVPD
From the text: as §1

TGFBR1 = TGFBR1 (Homo sapiens, UniProt P36897)
From the text: as §1

TXK = TXK (Homo sapiens, UniProt P42681)
Chain of TXK (P42681 whole entry): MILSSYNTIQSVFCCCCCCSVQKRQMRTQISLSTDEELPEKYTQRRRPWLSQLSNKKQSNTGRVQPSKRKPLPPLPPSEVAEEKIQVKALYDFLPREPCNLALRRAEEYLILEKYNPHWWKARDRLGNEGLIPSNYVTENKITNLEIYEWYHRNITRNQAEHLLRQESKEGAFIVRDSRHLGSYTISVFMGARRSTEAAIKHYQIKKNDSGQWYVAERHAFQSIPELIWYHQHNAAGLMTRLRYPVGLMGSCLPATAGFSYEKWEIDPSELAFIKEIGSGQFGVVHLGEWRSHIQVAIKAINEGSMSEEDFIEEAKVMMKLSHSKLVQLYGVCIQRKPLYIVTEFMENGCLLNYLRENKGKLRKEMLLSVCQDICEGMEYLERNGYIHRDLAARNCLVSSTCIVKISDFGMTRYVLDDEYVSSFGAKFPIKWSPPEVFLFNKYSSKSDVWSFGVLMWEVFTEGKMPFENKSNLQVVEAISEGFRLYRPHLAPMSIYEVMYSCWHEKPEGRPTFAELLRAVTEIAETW
From the text: as §1

PRKD2 = PRKD2 (Homo sapiens, UniProt Q9BZL6)
Chain of PRKD2 (Q9BZL6 whole entry): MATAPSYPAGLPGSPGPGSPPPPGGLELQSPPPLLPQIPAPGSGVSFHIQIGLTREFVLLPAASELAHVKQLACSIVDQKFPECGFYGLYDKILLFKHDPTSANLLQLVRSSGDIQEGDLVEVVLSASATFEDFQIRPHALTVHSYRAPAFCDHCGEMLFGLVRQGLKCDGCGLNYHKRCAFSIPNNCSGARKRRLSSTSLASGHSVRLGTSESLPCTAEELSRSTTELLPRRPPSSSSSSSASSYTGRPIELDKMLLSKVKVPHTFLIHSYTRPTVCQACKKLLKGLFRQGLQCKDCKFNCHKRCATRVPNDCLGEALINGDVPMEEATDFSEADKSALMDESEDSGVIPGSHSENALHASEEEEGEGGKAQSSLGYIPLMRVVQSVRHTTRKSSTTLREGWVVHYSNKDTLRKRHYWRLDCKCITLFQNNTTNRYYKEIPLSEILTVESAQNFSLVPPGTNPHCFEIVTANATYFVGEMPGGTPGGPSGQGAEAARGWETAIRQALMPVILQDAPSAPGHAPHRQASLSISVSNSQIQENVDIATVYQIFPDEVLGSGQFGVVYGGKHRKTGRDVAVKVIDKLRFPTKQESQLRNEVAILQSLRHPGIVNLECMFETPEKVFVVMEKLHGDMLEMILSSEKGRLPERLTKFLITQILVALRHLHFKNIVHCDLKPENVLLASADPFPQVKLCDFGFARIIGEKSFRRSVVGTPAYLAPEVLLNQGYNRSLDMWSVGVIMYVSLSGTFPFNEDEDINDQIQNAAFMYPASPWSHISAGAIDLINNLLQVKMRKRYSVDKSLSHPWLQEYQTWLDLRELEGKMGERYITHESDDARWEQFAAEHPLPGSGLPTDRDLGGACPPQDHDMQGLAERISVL
From the text: as §1

BLK = BLK (Homo sapiens, UniProt P51451)
From the text: as §1

AKT3 = AKT3 (Homo sapiens, UniProt Q9Y243)
From the text: as §1

ITK = ITK (Homo sapiens, UniProt Q08881)
From the text: as §1

[1] = molecular target: T1, TYK2(JH1domain-catalytic) (Homo sapiens, UniProt P29597)
T1 construct: JH1domain-catalytic
T1 sequence (P29597 whole entry): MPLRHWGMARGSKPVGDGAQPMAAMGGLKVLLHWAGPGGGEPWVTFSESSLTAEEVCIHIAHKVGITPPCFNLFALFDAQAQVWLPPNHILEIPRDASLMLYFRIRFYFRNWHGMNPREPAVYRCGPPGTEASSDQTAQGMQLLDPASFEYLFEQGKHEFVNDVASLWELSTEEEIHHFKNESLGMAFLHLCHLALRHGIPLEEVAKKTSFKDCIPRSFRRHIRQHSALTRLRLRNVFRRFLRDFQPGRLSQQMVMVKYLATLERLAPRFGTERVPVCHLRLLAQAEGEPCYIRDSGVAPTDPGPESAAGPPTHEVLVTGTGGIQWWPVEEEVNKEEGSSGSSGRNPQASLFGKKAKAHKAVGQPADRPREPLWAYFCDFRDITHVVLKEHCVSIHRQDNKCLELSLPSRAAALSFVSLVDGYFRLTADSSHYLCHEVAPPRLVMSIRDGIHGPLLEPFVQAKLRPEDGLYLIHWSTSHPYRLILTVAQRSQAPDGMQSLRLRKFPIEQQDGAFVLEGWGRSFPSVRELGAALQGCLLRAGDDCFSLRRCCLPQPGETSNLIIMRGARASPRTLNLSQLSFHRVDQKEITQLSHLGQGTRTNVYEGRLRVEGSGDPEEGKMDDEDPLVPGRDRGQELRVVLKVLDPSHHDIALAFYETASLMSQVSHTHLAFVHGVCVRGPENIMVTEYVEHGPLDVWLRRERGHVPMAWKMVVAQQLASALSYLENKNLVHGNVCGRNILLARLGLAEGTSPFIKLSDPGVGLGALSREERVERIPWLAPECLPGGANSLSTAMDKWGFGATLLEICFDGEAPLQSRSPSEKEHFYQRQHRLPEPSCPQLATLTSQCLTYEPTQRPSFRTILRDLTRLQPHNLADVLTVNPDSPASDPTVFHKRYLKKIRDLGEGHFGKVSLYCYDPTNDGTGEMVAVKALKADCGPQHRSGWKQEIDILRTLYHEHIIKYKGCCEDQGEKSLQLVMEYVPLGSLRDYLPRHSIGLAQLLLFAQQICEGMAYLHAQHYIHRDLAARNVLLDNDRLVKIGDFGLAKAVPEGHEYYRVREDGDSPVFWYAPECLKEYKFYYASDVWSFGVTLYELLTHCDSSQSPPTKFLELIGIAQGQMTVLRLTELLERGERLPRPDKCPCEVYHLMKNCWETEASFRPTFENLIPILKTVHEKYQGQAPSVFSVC
From the text: as §1

MAP4K2 = MAP4K2 (Homo sapiens, UniProt Q12851)
From the text: as §1

PLK3 = PLK3 (Homo sapiens, UniProt Q9H4B4)
From the text: as §1

FLT3(K663Q) = FLT3(K663Q) (Homo sapiens, UniProt P36888, K663Q)
From the text: as §1

FLT3(ITD,D835V) = FLT3(ITD,D835V) (Homo sapiens, UniProt P36888, D835V/ITD)
From the text: as §1

PRKCI = PRKCI (Homo sapiens, UniProt P41743)
Chain of PRKCI (P41743 whole entry): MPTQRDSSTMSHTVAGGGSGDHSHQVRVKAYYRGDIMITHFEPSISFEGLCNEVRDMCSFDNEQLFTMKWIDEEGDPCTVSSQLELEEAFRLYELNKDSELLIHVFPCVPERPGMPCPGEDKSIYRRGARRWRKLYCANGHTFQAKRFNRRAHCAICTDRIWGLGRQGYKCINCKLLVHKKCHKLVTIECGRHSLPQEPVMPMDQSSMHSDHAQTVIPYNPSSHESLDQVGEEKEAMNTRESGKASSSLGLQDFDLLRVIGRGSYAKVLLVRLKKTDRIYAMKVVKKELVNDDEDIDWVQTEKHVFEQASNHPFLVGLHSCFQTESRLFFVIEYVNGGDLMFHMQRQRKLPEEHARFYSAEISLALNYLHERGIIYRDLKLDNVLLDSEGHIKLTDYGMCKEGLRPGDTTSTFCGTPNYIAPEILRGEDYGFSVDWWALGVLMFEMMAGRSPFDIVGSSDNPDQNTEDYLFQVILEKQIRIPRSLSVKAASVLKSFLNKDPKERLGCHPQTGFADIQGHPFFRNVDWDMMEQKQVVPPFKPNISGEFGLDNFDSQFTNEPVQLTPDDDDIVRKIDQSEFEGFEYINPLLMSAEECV
From the text: as §1

RIOK3 = RIOK3 (Homo sapiens, UniProt O14730)
From the text: as §1

PAK2 = PAK2 (Homo sapiens, UniProt Q13177)
From the text: as §1

p38-beta = molecular target: T2, p38-beta (Homo sapiens, UniProt Q15759)
T2 construct: gene MAPK11
T2 sequence (Q15759 whole entry): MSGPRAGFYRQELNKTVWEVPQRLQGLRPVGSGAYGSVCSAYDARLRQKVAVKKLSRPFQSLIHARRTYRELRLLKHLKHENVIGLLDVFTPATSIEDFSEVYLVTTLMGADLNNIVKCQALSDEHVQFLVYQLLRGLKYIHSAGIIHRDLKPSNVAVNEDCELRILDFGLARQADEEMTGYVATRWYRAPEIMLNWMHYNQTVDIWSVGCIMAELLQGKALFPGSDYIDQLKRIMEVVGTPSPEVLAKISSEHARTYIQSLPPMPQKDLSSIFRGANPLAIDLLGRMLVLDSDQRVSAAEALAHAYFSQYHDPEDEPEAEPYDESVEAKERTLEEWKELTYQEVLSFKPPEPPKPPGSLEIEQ
From the text: as §1

CSNK1G2 = CSNK1G2 (Homo sapiens, UniProt P78368)
From the text: as §1

CHEK2 = CHEK2 (Homo sapiens, UniProt O96017)
From the text: as §1

SRMS = SRMS (Homo sapiens, UniProt Q9H3Y6)
From the text: as §1

FYN = FYN (Homo sapiens, UniProt P06241)
From the text: as §1

CAMK1D = CAMK1D (Homo sapiens, UniProt Q8IU85)
From the text: as §1

[2] = molecular target: T3, ABL1(T315I)-phosphorylated (Homo sapiens, UniProt P00519, T315I)
T3 construct: phosphorylated
From the text: as §1

EPHA1 = EPHA1 (Homo sapiens, UniProt P21709)
From the text: as §1

SRPK1 = SRPK1 (Homo sapiens, UniProt Q96SB4)
Chain of SRPK1 (Q96SB4 whole entry): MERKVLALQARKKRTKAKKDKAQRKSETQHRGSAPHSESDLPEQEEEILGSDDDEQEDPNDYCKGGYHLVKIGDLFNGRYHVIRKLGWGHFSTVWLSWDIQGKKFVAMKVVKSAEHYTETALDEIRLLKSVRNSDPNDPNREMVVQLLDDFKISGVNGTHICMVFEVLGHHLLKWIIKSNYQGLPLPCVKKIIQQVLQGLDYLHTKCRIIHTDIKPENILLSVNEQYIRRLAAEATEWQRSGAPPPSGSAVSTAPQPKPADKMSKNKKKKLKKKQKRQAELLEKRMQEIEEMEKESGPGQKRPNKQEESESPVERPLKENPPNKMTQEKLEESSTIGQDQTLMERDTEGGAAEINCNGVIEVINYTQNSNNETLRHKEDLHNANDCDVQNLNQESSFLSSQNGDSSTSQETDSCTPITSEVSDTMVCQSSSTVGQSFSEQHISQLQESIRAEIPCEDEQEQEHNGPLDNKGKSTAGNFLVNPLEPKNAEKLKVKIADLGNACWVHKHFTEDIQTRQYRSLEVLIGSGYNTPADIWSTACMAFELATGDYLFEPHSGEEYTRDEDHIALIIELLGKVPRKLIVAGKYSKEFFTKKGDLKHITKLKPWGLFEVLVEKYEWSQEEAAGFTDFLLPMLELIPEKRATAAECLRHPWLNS
From the text: as §1

Compound: Cn1c(=O)[nH]c2ccc(-c3cccc(C(=O)NC4CCn5ccnc5C4)c3)cc21 (stereo not shown) [Z36-MP5]
- remaining binding at 1 µM (RIPK4): 99%
- remaining binding at 1 µM (LIMK1): 85%
- remaining binding at 1 µM (TGFBR1): 90%
- remaining binding at 1 µM (TXK): 98%
- remaining binding at 1 µM (PRKD2): 64%
- remaining binding at 1 µM (BLK): 100%
- remaining binding at 1 µM (AKT3): 91%
- remaining binding at 1 µM (ITK): 96%
- remaining binding at 1 µM [1]: 64%
- remaining binding at 1 µM (MAP4K2): 81%
- remaining binding at 1 µM (PLK3): 68%
- remaining binding at 1 µM (FLT3(K663Q)): 98%
- remaining binding at 1 µM (FLT3(ITD,D835V)): 56%
- remaining binding at 1 µM (PRKCI): 71%
- remaining binding at 1 µM (RIOK3): 100%
- remaining binding at 1 µM (PAK2): 63%
- remaining binding at 1 µM (p38-beta): 87%
- remaining binding at 1 µM (CSNK1G2): 86%
- remaining binding at 1 µM (CHEK2): 58%
- remaining binding at 1 µM (SRMS): 89%
- remaining binding at 1 µM (FYN): 100%
- remaining binding at 1 µM (CAMK1D): 61%
- remaining binding at 1 µM [2]: 49%
- remaining binding at 1 µM (EPHA1): 96%
- remaining binding at 1 µM (SRPK1): 55%
